# Measured values from patent US10538497B2, “Compounds as indoleamine 2,3-dioxygenase inhibitors” (Merck Sharp & Dohme Corp., priority 2015, dated 2020).
# pIC50: −log10 of the molar value.
# Key:
# [1] = biological target: T1, IDO1 (Homo sapiens (Human), UniProt P14902); assay: IDO1 Enzyme Assay; settings: HIS-tagged recombinant IDO1, 40 nM; for pIC50: read-out: IDO1 Enzyme Assay, IC50; for IC50: IDO1 Enzyme Assay, IC50, nM
# [2] = biological target: T1, IDO1; assay: IDO1 Cellular Assay in Hela Cells Stimulated with IFNγ; type: cell-based; settings: Hela cells stimulated with IFNγ 100 ng/mL; read-out: IDO1 HELA Cell Assay, IC50
# [3] = biological target: T1, IDO1; assay: IDO1 Cellular Assay in Frozen HEK293 Cells Transiently Transfected with Human IDO1; type: cell-based; settings: HEK293 cells transiently transfected with human IDO1; read-out: IDO1 HEK293 Cell Assay, IC50
# Protocol: IDO1 Cellular Assay in Frozen HEK293 Cells Transiently Transfected with Human IDO1
# HEK293 cells were cultured in complete HEK293 culture medium (90% DMEM, 10% heat-inactivated fetal bovine serum). When reaching sub-confluent, the cells were trypsinized and neutralized with complete medium. […] Flag-IDO1 plasmid was added to the cell suspension at a concentration of 100 μg/mL. The cell-plasmid solutions were transferred to the OC-400 processing assembly (Maxcyte), 400 l/unit and the units were placed in a Maxcyte instrument to carry out flow electroporation for transfection. The cells were then transferred to a sterile 24-well cell culture plate to recover for 20-30 min at 37° C. in an incubator with 5% CO2.
# Frozen HEK293/IDO1 and HEK293 WT cells were thawed and transferred into HEK293 assay medium (99% complete HEK293 culture medium, 1% Pen/Strep) with 20 mL medium/vial of cells. The cells were spun down at 250 g in a table top centrifuge for 5 min and suspended in same volume of HEK293 assay medium. […] Sterile L-tryptophan were added to the cells with final concentration of 300 μM.
# HEK293/IDO1 and HEK293 WT cells were dispensed to the respective wells of 384-well assay plates containing the compounds. The plates were incubated for about 28-30 h at a 37° C., 5% CO2 incubator. […] The plates were centrifuged for 1 min at 200×g. The resulting fluorescence was measured in a Spectramax plate reader (Molecular Devices) with a 400 nm excitation filter and a 510 nm emission filter.
# T1 sequence (P14902 whole entry): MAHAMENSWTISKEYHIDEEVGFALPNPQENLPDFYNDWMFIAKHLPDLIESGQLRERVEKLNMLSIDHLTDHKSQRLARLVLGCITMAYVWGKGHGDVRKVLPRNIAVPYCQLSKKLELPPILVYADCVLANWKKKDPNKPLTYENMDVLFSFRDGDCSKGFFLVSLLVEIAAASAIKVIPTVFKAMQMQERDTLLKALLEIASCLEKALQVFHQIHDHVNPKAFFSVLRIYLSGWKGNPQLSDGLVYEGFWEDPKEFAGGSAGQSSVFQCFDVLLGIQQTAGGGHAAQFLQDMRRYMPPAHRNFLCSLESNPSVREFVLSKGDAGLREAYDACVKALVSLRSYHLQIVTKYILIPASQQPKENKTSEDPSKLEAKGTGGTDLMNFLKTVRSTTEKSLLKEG
pIC50 [1],pIC50 [2],pIC50 [3],IC50 [1] [nM],Compound
7.23,7.06,7.19,–,"CC(O)CSc1nonc1/C(=N/O)Nc1ccc(F)c(Br)c1 (stereo not drawn) [Example 18, (Z)-N-(3-bromo-4-fluorophenyl)-N′-hydroxy-4-((2-hydroxypropyl)thio)-1,2,5-oxadiazole-3-carboximidamide]"
7.29,7.36,7.44,–,"NC(=O)CSc1nonc1/C(=N/O)Nc1ccc(F)c(Br)c1 [Example 77, 2-({4-[N-(3-bromo-4-fluorophenyl)-N′-hydroxycarbamimidoyl]-1,2,5-oxadiazol-3-yl}sulfanyl)acetamide]"
7.06,5.21,5.35,–,"CCOC(=O)CCSc1nonc1/C(=N/O)Nc1ccc(F)c(Br)c1 [Example 13, Ethyl (Z)-3-((4-(N-(3-bromo-4-fluorophenyl)-N′-hydroxycarbamimidoyl)-1,2,5-oxadiazol-3-yl)thio)propanoate]"
7.04,6.83,6.82,–,"O/N=C(\Nc1ccc(F)c(Br)c1)c1nonc1SCC1CNC1 [Example 25, (Z)-4-((azetidin-3-ylmethyl)thio)-N-(3-bromo-4-fluorophenyl)-N′-hydroxy-1,2,5-oxadiazole-3-carboximidamide]"
–,6.90,7.21,65.7,"ON=C(Nc1ccc(F)c(Br)c1)c1nonc1SCCF [Example 160, N-(3-bromo-4-fluorophenyl)-4-[(2-fluoroethyl)sulfanyl]-N′-hydroxy-1,2,5-oxadiazole-3-carboximidamide]"
–,7.26,7.22,38.7,"CC(O)CNC(=O)CSc1nonc1C(=NO)Nc1ccc(F)c(Br)c1 (stereo not drawn) [Example 138, 2-({4-[N-(3-bromo-4-fluorophenyl)-N′-hydroxycarbamimidoyl]-1,2,5-oxadiazol-3-yl}sulfanyl)-N-(2-hydroxypropyl)acetamide]"
7.32,7.40,7.34,–,"CN1C(=O)NC[C@H]1CSc1nonc1/C(=N/O)Nc1ccc(F)c(Br)c1 [Example 121, N-(3-bromo-4-fluorophenyl)-N′-hydroxy-4-({[(4S)-3-methyl-2-oxoimidazolidin-4-yl]methyl}sulfanyl)-1,2,5-oxadiazole-3-carboximidamide]"
–,6.83,7.01,36.9,"O=C(CSc1nonc1C(=NO)Nc1ccc(F)c(Br)c1)NC1CCC1 [Example 114, 2-({4-[N-(3-bromo-4-fluorophenyl)-N′-hydroxycarbamimidoyl]-1,2,5-oxadiazol-3-yl}sulfanyl)-N-cyclobutylacetamide]"
7.29,6.77,6.98,–,"CC(=O)CSc1nonc1/C(=N/O)Nc1ccc(F)c(Br)c1 [Example 115, N-(3-bromo-4-fluorophenyl)-N′-hydroxy-4-[(2-oxopropyl)sulfanyl]-1,2,5-oxadiazole-3-carboximidamide]"
–,7.36,7.12,49.1,"OCC(O)CSc1nonc1/C(=N/O)Nc1ccc(F)c(Br)c1 (single isomer, unassigned) [Example 64, N-(3-bromo-4-fluorophenyl)-4-[(2,3-dihydroxypropyl)sulfanyl]-N′-hydroxy-1,2,5-oxadiazole-3-carboximidamide]"
–,7.16,7.18,85.4,"Cn1ccnc1CSc1nonc1C(=NO)Nc1ccc(F)c(Br)c1 [Example 153, N-(3-bromo-4-fluorophenyl)-N′-hydroxy-4-{[(1-methyl-1H-imidazol-2-yl)methyl]sulfanyl}-1,2,5-oxadiazole-3-carboximidamide]"
6.97,5.10,5.20,–,"O=P(O)(O)CCSc1nonc1/C(=N/O)Nc1ccc(F)c(Br)c1 [Example 8, (Z)-(2-((4-(N-(3-Bromo-4-fluorophenyl)-N′-hydroxycarbamimidoyl)-1,2,5-oxadiazol-3-yl)thio)ethyl)phosphonic acid]"

# Continued, molecule first:
Compound,pIC50 [1],pIC50 [2],pIC50 [3],IC50 [1] [nM]
"CC(=O)NCCSc1nonc1/C(=N/O)Nc1ccc(F)c(C(F)(F)F)c1 [Example 49, N-{2-[(4-{N-[4-fluoro-3-(trifluoromethyl)phenyl]-N′-hydroxycarbamimidoyl}-1,2,5-oxadiazol-3-yl)sulfanyl]ethyl}acetamide]",7.19,7.92,7.50,–
"N/C(=C\[N+](=O)[O-])NCCSc1nonc1C(=NO)Nc1ccc(F)c(Br)c1 [Example 99, 4-[(2-{[(E)-1-amino-2-nitroethenyl]amino}ethyl)sulfanyl]-N-(3-bromo-4-fluorophenyl)-N′-hydroxy-1,2,5-oxadiazole-3-carboximidamide]",7.08,6.71,6.64,–
"CC(=O)NCCSc1nonc1/C(=N/O)Nc1cccc(Br)c1 [Example 59, N-[2-({4-[N-(3-bromophenyl)-N′-hydroxycarbamimidoyl]-1,2,5-oxadiazol-3-yl}sulfanyl)ethyl]acetamide]",7.63,7.65,7.69,–
"ON=C(Nc1ccc(F)c(Br)c1)c1nonc1SCC1CCCNC1 (stereo not drawn) [Example 158, N-(3-bromo-4-fluorophenyl)-N′-hydroxy-4-[(piperidin-3-ylmethyl)sulfanyl]-1,2,5-oxadiazole-3-carboximidamide]",–,6.63,7.14,95.7
"CN1C[C@@H](CSc2nonc2/C(=N/O)Nc2ccc(F)c(Br)c2)NC1=O [Example 122, N-(3-bromo-4-fluorophenyl)-N′-hydroxy-4-({[(4S)-1-methyl-2-oxoimidazolidin-4-yl]methyl}sulfanyl)-1,2,5-oxadiazole-3-carboximidamide]",7.42,7.57,7.63,–
"CC(=O)NCCSc1nonc1/C(=N/O)Nc1ccc(F)c(OC(F)(F)F)c1 [Example 52, N-{2-[(4-{N-[4-fluoro-3-(trifluoromethoxy)phenyl]-N′-hydroxycarbamimidoyl}-1,2,5-oxadiazol-3-yl)sulfanyl]ethyl}acetamide]",6.45,6.84,6.75,–
"O/N=C(\Nc1ccc(F)c(Br)c1)c1nonc1SCCN1CCOCC1 [Example 126, N-(3-bromo-4-fluorophenyl)-N′-hydroxy-4-[(2-morpholin-4-ylethyl)sulfanyl]-1,2,5-oxadiazole-3-carboximidamide]",7.24,7.03,7.28,–
"COCCNP(=O)(CCSc1nonc1/C(=N/O)Nc1ccc(F)c(Br)c1)NCCOC [Example 100, 4-[(2-{bis[(2-methoxyethyl)amino]phosphoryl}ethyl)sulfanyl]-N-(3-bromo-4-fluorophenyl)-N′-hydroxy-1,2,5-oxadiaxole-3-carboximidamide]",7.01,6.47,6.24,–
"COCCNC(=O)CCSc1nonc1/C(=N/O)Nc1ccc(F)c(Br)c1 [Example 106, 3-({4-[N-(3-bromo-4-fluorophenyl)-N′-hydroxycarbamimidoyl]-1,2,5-oxadiazol-3-yl}sulfanyl)-N-(2-methoxyethyl)propanamide]",7.52,6.25,7.10,–
"O=C(CSc1nonc1/C(=N/O)Nc1ccc(F)c(Br)c1)Nc1ccccc1 [Example 61, 2-({4-[N-(3-bromo-4-fluorophenyI)-N′-hydroxycarbamimidoyl]-1,2,5-oxadiazol-3-yl}sulfanyl)-N-phenylacetamide]",7.03,7.11,6.77,–
"O=S1(=O)CCC(Sc2nonc2/C(=N/O)Nc2ccc(F)c(Br)c2)CC1 [Example 82, N-(3-bromo-4-fluorophenyl)-4-[(1,1-dioxidotetrahydro-2H-thiopyran-4-yl)sulfanyl]-N′-hydroxy-1,2,5-oxadiazole-3-carboximidamide]",6.99,7.39,7.11,–
"O=C(NCCSc1nonc1/C(=N/O)Nc1ccc(F)c(Br)c1)C(F)(F)F [Example 79, N-[2-({4-[N-(3-bromo-4-fluorophenyl)-N′-hydroxycarbamimidoyl]-1,2,5-oxadiazol-3-yl}sulfanyl)ethyl]-2,2,2-trifluoroacetamide]",7.21,7.62,7.56,–
"N#Cc1cc(N/C(=N\O)c2nonc2SCCNC(=O)[C@H]2CC2(F)F)ccc1F [Example 187, (1R)-N-[2-({4-[N-(3-cyano-4-fluorophenyl)-N′-hydroxycarbamimidoyl]-1,2,5-oxadiazol-3-yl}sulfanyl)ethyl]-2,2-difluorocyclopropanecarboxamide]",7.07,6.57,6.85,–
"CNC(=O)N1CC(Sc2nonc2/C(=N/O)Nc2ccc(F)c(Br)c2)C1 [Example 81, 3-({4-[N-(3-bromo-4-fluorophenyl)-N′-hydroxycarbamimidoyl]-1,2,5-oxadiazol-3-yl}sulfanyl)-N-methylazetidine-1-carboxamide]",7.38,7.37,7.43,–
